Experimental data taken from patent EP4707280A1, “1,4-CINEOLE DERIVATIVE AND INTERMEDIATE THEREOF, HERBICIDE CONTAINING SAID DERIVATIVE AS ACTIVE INGREDIENT, METHOD FOR USING HERBICIDE, AND METHOD FOR PREPARING AGROCHEMICAL COMPOSITION” (HOKKO CHEMICAL INDUSTRY CO., LTD., priority 2023, dated 2024).

Assays:
Type in all cases: in vivo
Echinochloa crus-galli [1] = assay: Test Example 4: herbicidal effect test by stem and leaf treatment in upland field; conditions: Echinochloa crus-galli; 120 g per 10 ares; sprayed seven days after sowing, upland soil; 14 days after application; read-out: weed inhibition rate
Digitaria ciliaris [2] = assay: Test Example 3: herbicidal effect test by soil application in upland field; conditions: Digitaria ciliaris, 120 g per 10 ares, sprayed one day after sowing, 14 days after application, read-out: weed inhibition rate
Method in brief: (§1)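 Weed inhibition (%) was assessed 14 days after treatment, in duplicate per concentration group. Seeds had been mixed into the upper 1 cm of upland alluvial loam, and the soil surface was sprayed one day later with the diluted emulsifiable concentrate at 120 g active ingredient per 10 ares.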

Echinochloa crus-galli [3] = assay: as above; conditions: Echinochloa crus-galli, 120 g per 10 ares, sprayed one day after sowing, 14 days after application, read-out: weed inhibition rate
Method in brief: as §1

[4] = system: Echinochloa crus-galli var. formosensis; assay: Test Example 2: herbicidal effect test by application during growth period of paddy rice; conditions: Echinochloa crus-galli; 120 g per 10 ares; applied seven days after sowing, flooded pots; 14 days after application; read-out: weed inhibition rate
Method in brief: (§2)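 Paddy soil in Wagner pots was puddled with N:P:K 16:16:16 fertilizer, sown with 30 weed seeds per species at 0–1 cm and flooded to about 3 cm. Seven days after sowing, a water-diluted emulsifiable concentrate was dropped onto the water at 120 g active ingredient per 10 ares. Weed inhibition (%) was scored at 14 days, in duplicate.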

Scirpus juncoides [5] = assay: as above; conditions: Schoenoplectiella juncoides; 120 g per 10 ares; applied seven days after sowing, flooded pots; 14 days after application; read-out: weed inhibition rate
Method in brief: as §2

Monochoria vaginalis [6] = assay: as above; conditions: Pontederia vaginalis; 120 g per 10 ares; applied seven days after sowing, flooded pots; 14 days after application; read-out: weed inhibition rate
Method in brief: as §2

[7] = system: Echinochloa crus-galli var. formosensis; assay: Test Example 6: herbicidal effect test by application during growth period of paddy rice (low dose); conditions: Echinochloa crus-galli; 7.5 g per 10 ares; applied seven days after sowing, flooded pots; 14 days after application; read-out: weed inhibition rate
Method in brief: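 Puddled, fertilised paddy soil was sown with 30 seeds per species and flooded to about 3 cm. After 7 days in a glass greenhouse, the diluted emulsifiable concentrate went into the water by dropper at 7.5 g/10 a. Effect scored at 14 days.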

Scirpus juncoides [8] = assay: Test Example 5: herbicidal effect test by soil application in paddy rice (low dose); conditions: Schoenoplectiella juncoides, 336 h, 7.5 g per 10 ares, applied immediately after sowing, flooded pots, 14 days after application, read-out: weed inhibition rate
Method in brief: (§3)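 Paddy soil in Wagner pots was fertilized (N:P:K 16:16:16), puddled, sown with 30 seeds per weed species at 0–1 cm, then flooded to ~3 cm in a glass greenhouse. Emulsifiable concentrate diluted in water was dropper-applied into floodwater immediately, at 7.5 g active ingredient per 10 ares; duplicates, scored at 14 days.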

Monochoria vaginalis [9] = assay: as above; conditions: Pontederia vaginalis, 336 h, 7.5 g per 10 ares, applied immediately after sowing, flooded pots, 14 days after application, read-out: weed inhibition rate
Method in brief: as §3

Digitaria ciliaris [10] = assay: Test Example 4: herbicidal effect test by stem and leaf treatment in upland field; conditions: Digitaria ciliaris; 120 g per 10 ares; sprayed seven days after sowing, upland soil; 14 days after application; read-out: weed inhibition rate
Echinochloa crus-galli [11] = assay: Test Example 8: herbicidal effect test by stem and leaf treatment in upland field (low dose); conditions: Echinochloa crus-galli; 7.5 g per 10 ares; sprayed seven days after sowing, upland soil; 14 days after application; read-out: weed inhibition rate

CC(C)[C@]12C[C@@H](OCc3ccccc3F)[C@](C)(CC1OCC1CC1)O2 (mixture of isomers) [1-921, (1S,2R,4R,SR)-5-(cyclopropylmethoxy)-2-[(2-fluorophenyl)methoxy]-1-methyl-4-isopropyl-7-oxabicyclo[2.2.1]heptane]
≥ 80%: inhibition at 1200 g/ha (Echinochloa crus-galli [1]) | inhibition at 1200 g/ha (Digitaria ciliaris [2]) | inhibition at 1200 g/ha (Echinochloa crus-galli [3]) | inhibition at 1200 g/ha [4] | inhibition at 1200 g/ha (Scirpus juncoides [5]) | inhibition at 1200 g/ha (Monochoria vaginalis [6]) | inhibition at 75 g/ha [7] | inhibition at 75 g/ha (Scirpus juncoides [8]) | inhibition at 75 g/ha (Monochoria vaginalis [9]) | inhibition at 1200 g/ha (Digitaria ciliaris [10]) | inhibition at 75 g/ha (Echinochloa crus-galli [11])

CC(C)[C@]12C[C@@H](OCc3ccccc3F)[C@](C)(C[C@@H]1F)O2 [1-5, (1R,2S,4S,5R)-2-fluoro-5-((2-fluorobenzyl)oxy)-1-isopropyl-4-methyl-7-oxabicyclo[2.2.1]heptane]
≥ 80%: inhibition at 1200 g/ha (Echinochloa crus-galli [1]) | inhibition at 1200 g/ha (Digitaria ciliaris [2]) | inhibition at 1200 g/ha (Echinochloa crus-galli [3]) | inhibition at 1200 g/ha [4] | inhibition at 1200 g/ha (Scirpus juncoides [5]) | inhibition at 1200 g/ha (Monochoria vaginalis [6]) | inhibition at 75 g/ha [7] | inhibition at 75 g/ha (Scirpus juncoides [8]) | inhibition at 75 g/ha (Monochoria vaginalis [9]) | inhibition at 1200 g/ha (Digitaria ciliaris [10]) | inhibition at 75 g/ha (Echinochloa crus-galli [11])

CC(C)[C@]12C[C@@H](OCc3ccccc3)[C@](C)(C[C@@H]1Br)O2 [1-15, (1S,2R,4R,5S)-5-bromo-1-methyl-2-phenylmethoxy-4-isopropyl-7-oxabicyclo[2.2.1]heptane]
≥ 80%: inhibition at 1200 g/ha (Echinochloa crus-galli [1]) | inhibition at 1200 g/ha (Digitaria ciliaris [2]) | inhibition at 1200 g/ha (Echinochloa crus-galli [3]) | inhibition at 1200 g/ha [4] | inhibition at 1200 g/ha (Scirpus juncoides [5]) | inhibition at 1200 g/ha (Monochoria vaginalis [6]) | inhibition at 75 g/ha [7] | inhibition at 75 g/ha (Scirpus juncoides [8]) | inhibition at 75 g/ha (Monochoria vaginalis [9]) | inhibition at 1200 g/ha (Digitaria ciliaris [10]) | inhibition at 75 g/ha (Echinochloa crus-galli [11])

CC(C)[C@]12C[C@@H](OCc3ccccc3Cl)[C@](C)(C[C@@H]1Br)O2 [1-20, (1S,2R,4R,5S)-5-bromo-2-[(2-chlorophenyl)methoxy]-1-methyl-4-isopropyl-7-oxabicyclo[2.2.1]heptane]
≥ 80%: inhibition at 1200 g/ha (Echinochloa crus-galli [1]) | inhibition at 1200 g/ha (Digitaria ciliaris [2]) | inhibition at 1200 g/ha (Echinochloa crus-galli [3]) | inhibition at 1200 g/ha [4] | inhibition at 1200 g/ha (Scirpus juncoides [5]) | inhibition at 1200 g/ha (Monochoria vaginalis [6]) | inhibition at 75 g/ha [7] | inhibition at 75 g/ha (Scirpus juncoides [8]) | inhibition at 75 g/ha (Monochoria vaginalis [9]) | inhibition at 1200 g/ha (Digitaria ciliaris [10]) | inhibition at 75 g/ha (Echinochloa crus-galli [11])

CC(C)[C@]12C[C@@H](OCc3c(F)cccc3F)[C@](C)(C[C@@H]1Br)O2 [1-21, (1S,2R,4R,5S)-5-bromo-2-[(2,6-difluorophenyl)methoxy]-1-methyl-4-isopropyl-7-oxabicyclo[2.2.1]heptane]
≥ 80%: inhibition at 1200 g/ha (Echinochloa crus-galli [1]) | inhibition at 1200 g/ha (Digitaria ciliaris [2]) | inhibition at 1200 g/ha (Echinochloa crus-galli [3]) | inhibition at 1200 g/ha [4] | inhibition at 1200 g/ha (Scirpus juncoides [5]) | inhibition at 1200 g/ha (Monochoria vaginalis [6]) | inhibition at 75 g/ha [7] | inhibition at 75 g/ha (Scirpus juncoides [8]) | inhibition at 75 g/ha (Monochoria vaginalis [9]) | inhibition at 1200 g/ha (Digitaria ciliaris [10]) | inhibition at 75 g/ha (Echinochloa crus-galli [11])

Cc1ccccc1CO[C@@H]1C[C@]2(C(C)C)O[C@@]1(C)C[C@@H]2O [1-24, (1R,2S,4S,5R)-1-isopropyl-4-methyl-5-((2-methylbenzyl)oxy)-7-oxabicyclo[2.2.1]heptan-2-ol]
≥ 80%: inhibition at 1200 g/ha (Echinochloa crus-galli [1]) | inhibition at 1200 g/ha (Digitaria ciliaris [2]) | inhibition at 1200 g/ha (Echinochloa crus-galli [3]) | inhibition at 1200 g/ha [4] | inhibition at 1200 g/ha (Scirpus juncoides [5]) | inhibition at 1200 g/ha (Monochoria vaginalis [6]) | inhibition at 75 g/ha [7] | inhibition at 75 g/ha (Scirpus juncoides [8]) | inhibition at 75 g/ha (Monochoria vaginalis [9]) | inhibition at 1200 g/ha (Digitaria ciliaris [10]) | inhibition at 75 g/ha (Echinochloa crus-galli [11])

Cc1ccccc1CO[C@@H]1C[C@]2(C(C)C)O[C@@]1(C)CC2C (stereo partly drawn) [1-83, (1S,2R,4R)-4-isopropyl-1,5-dimethyl-2-((2-methylbenzyl)oxy)-7-oxabicyclo[2.2.1]heptane]
≥ 80%: inhibition at 1200 g/ha (Echinochloa crus-galli [1]) | inhibition at 1200 g/ha (Digitaria ciliaris [2]) | inhibition at 1200 g/ha (Echinochloa crus-galli [3]) | inhibition at 1200 g/ha [4] | inhibition at 1200 g/ha (Scirpus juncoides [5]) | inhibition at 1200 g/ha (Monochoria vaginalis [6]) | inhibition at 75 g/ha [7] | inhibition at 75 g/ha (Scirpus juncoides [8]) | inhibition at 75 g/ha (Monochoria vaginalis [9]) | inhibition at 1200 g/ha (Digitaria ciliaris [10]) | inhibition at 75 g/ha (Echinochloa crus-galli [11])

CC(C)[C@]12C[C@@H](OCc3ccccc3F)[C@](C)(CC1C)O2 (stereo partly drawn) [1-92, (1S,2R,4R)-2-((2-fluorobenzyl)oxy)-4-isopropyl-1,5-dimethyl-7-oxabicyclo[2.2.1]heptane]
≥ 80%: inhibition at 1200 g/ha (Echinochloa crus-galli [1]) | inhibition at 1200 g/ha (Digitaria ciliaris [2]) | inhibition at 1200 g/ha (Echinochloa crus-galli [3]) | inhibition at 1200 g/ha [4] | inhibition at 1200 g/ha (Scirpus juncoides [5]) | inhibition at 1200 g/ha (Monochoria vaginalis [6]) | inhibition at 75 g/ha [7] | inhibition at 75 g/ha (Scirpus juncoides [8]) | inhibition at 75 g/ha (Monochoria vaginalis [9]) | inhibition at 1200 g/ha (Digitaria ciliaris [10]) | inhibition at 75 g/ha (Echinochloa crus-galli [11])

CC(C)C1C[C@]2(C)O[C@@]1(C(C)C)C[C@H]2OCc1ccccc1F (stereo partly drawn) [1-133, (1S,2R,4R)-2-[(2-fluorobenzyl)oxy]-4,5-isopropyl-1-methyl-7-oxabicyclo[2.2.1]heptane]
≥ 80%: inhibition at 1200 g/ha (Echinochloa crus-galli [1]) | inhibition at 1200 g/ha (Digitaria ciliaris [2]) | inhibition at 1200 g/ha (Echinochloa crus-galli [3]) | inhibition at 1200 g/ha [4] | inhibition at 1200 g/ha (Scirpus juncoides [5]) | inhibition at 1200 g/ha (Monochoria vaginalis [6]) | inhibition at 75 g/ha [7] | inhibition at 75 g/ha (Scirpus juncoides [8]) | inhibition at 75 g/ha (Monochoria vaginalis [9]) | inhibition at 1200 g/ha (Digitaria ciliaris [10]) | inhibition at 75 g/ha (Echinochloa crus-galli [11])

CO[C@H]1C[C@]2(C)O[C@@]1(C(C)C)C[C@H]2OCc1ccccc1F [1-156, (1S,2R,4R,5S)-2-((2-fluorobenzyl)oxy)-4-isopropyl-5-methoxy-1-methyl-7-oxabicyclo[2.2.1]heptane]
≥ 80%: inhibition at 1200 g/ha (Echinochloa crus-galli [1]) | inhibition at 1200 g/ha (Digitaria ciliaris [2]) | inhibition at 1200 g/ha (Echinochloa crus-galli [3]) | inhibition at 1200 g/ha [4] | inhibition at 1200 g/ha (Scirpus juncoides [5]) | inhibition at 1200 g/ha (Monochoria vaginalis [6]) | inhibition at 75 g/ha [7] | inhibition at 75 g/ha (Scirpus juncoides [8]) | inhibition at 75 g/ha (Monochoria vaginalis [9]) | inhibition at 1200 g/ha (Digitaria ciliaris [10]) | inhibition at 75 g/ha (Echinochloa crus-galli [11])

CCO[C@H]1C[C@]2(C)O[C@@]1(C(C)C)C[C@H]2OCc1ccccc1F [1-183, (1S,2R,4R,5S)-5-ethoxy-2-[(2-fluorophenyl)methoxy]-1-methyl-4-isopropyl-7-oxabicyclo[2.2.1]heptane]
≥ 80%: inhibition at 1200 g/ha (Echinochloa crus-galli [1]) | inhibition at 1200 g/ha (Digitaria ciliaris [2]) | inhibition at 1200 g/ha (Echinochloa crus-galli [3]) | inhibition at 1200 g/ha [4] | inhibition at 1200 g/ha (Scirpus juncoides [5]) | inhibition at 1200 g/ha (Monochoria vaginalis [6]) | inhibition at 75 g/ha [7] | inhibition at 75 g/ha (Scirpus juncoides [8]) | inhibition at 75 g/ha (Monochoria vaginalis [9]) | inhibition at 1200 g/ha (Digitaria ciliaris [10]) | inhibition at 75 g/ha (Echinochloa crus-galli [11])

Cc1ccccc1CO[C@@H]1C[C@@]2(C(C)C)C=C[C@]1(C)O2 [3-2, (1R,4S,5R)-4-methyl-5-[(2-methylphenyl)methoxy]-1-isopropyl-7-oxabicyclo[2.2.1]hept-2-ene]
≥ 80%: inhibition at 1200 g/ha (Echinochloa crus-galli [1]) | inhibition at 1200 g/ha (Digitaria ciliaris [2]) | inhibition at 1200 g/ha (Echinochloa crus-galli [3]) | inhibition at 1200 g/ha [4] | inhibition at 1200 g/ha (Scirpus juncoides [5]) | inhibition at 1200 g/ha (Monochoria vaginalis [6]) | inhibition at 75 g/ha [7] | inhibition at 75 g/ha (Scirpus juncoides [8]) | inhibition at 75 g/ha (Monochoria vaginalis [9]) | inhibition at 75 g/ha (Echinochloa crus-galli [11])
